# Assay results reported in patent US9133262B2, “Somatostatin antagonists” (Ipsen Pharma S.A.S., priority 1996, dated 2015).
# Positions of bridges follow the written chain, without caps; N, C: chain ends. Non-standard residues stand in square brackets, D forms with d. Residues, ends and D or L forms follow the SMILES beside them. Phe(4-Br) = N[C@@H](Cc1ccc(Br)cc1)C(=O)O; Phe(4-Cl) = N[C@@H](Cc1ccc(Cl)cc1)C(=O)O; Phe(4-F) = N[C@@H](Cc1ccc(F)cc1)C(=O)O; Phe(4-I) = N[C@@H](Cc1ccc(I)cc1)C(=O)O; dPhe(4-F) = N[C@H](Cc1ccc(F)cc1)C(=O)O; 2Nal = N[C@@H](Cc1ccc2ccccc2c1)C(=O)O; Bta = N[C@@H](Cc1csc2ccccc12)C(=O)O; 3Pal = N[C@@H](Cc1cccnc1)C(=O)O; Tle = CC(C)(C)[C@H](N)C(=O)O
# System: rat pituitary cells
# Assay type: cell-based
# Conditions: 3 h
# In short: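 Dispersed adult male rat pituitary cells, cultured 4-5 days, were exposed 3 h at 37° C in medium 199 with 1% BSA to 6 antagonist doses plus 1 nM SRIF and 1 nM GRF(1-29)NH2, in triplicate. GH in medium measured by radioimmunoassay; IC50 versus 1 nM SRIF fitted, maximum constrained to GRF-stimulated control.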
row,IC50 [nM],SMILES
1,230,"CC(C)[C@@H]1NC(=O)[C@H](CCCCN)NC(=O)[C@@H](Cc2c[nH]c3ccccc23)NC(=O)[C@H](Cc2csc3ccccc23)NC(=O)[C@H](NC(=O)[C@@H](N)Cc2ccc3ccccc3c2)CSSC[C@@H](C(=O)N[C@@H](Cc2ccc3ccccc3c2)C(N)=O)NC1=O [Analog No. 49, H2-β-Nal-D-Cys-Bta-D-Trp-Lys-Val-Cys-β-Nal-NH2] (H-[2Nal][dC][Bta][dW]KVC[2Nal]-NH2; disulfide 2-7)"
2,1.1,"CC(C)(C)[C@@H]1NC(=O)[C@H](CCCCN)NC(=O)[C@@H](Cc2c[nH]c3ccccc23)NC(=O)[C@H](Cc2cccnc2)NC(=O)[C@H](NC(=O)[C@@H](N)Cc2ccc(F)cc2)CSSC[C@@H](C(=O)N[C@@H](Cc2ccc3ccccc3c2)C(N)=O)NC1=O [Analog No. 50, H2-p-F-Phe-D-Cys-Pal-D-Trp-Lys-Tle-Cys-β-Nal-NH2] (H-[Phe(4-F)][dC][3Pal][dW]K[Tle]C[2Nal]-NH2; disulfide 2-7)"
3,12,"CC(C)(C)[C@@H]1NC(=O)[C@H](CCCCN)NC(=O)[C@@H](Cc2c[nH]c3ccccc23)NC(=O)[C@H](Cc2cccnc2)NC(=O)[C@H](NC(=O)[C@H](N)Cc2ccc(F)cc2)CSSC[C@@H](C(=O)N[C@@H](Cc2ccc3ccccc3c2)C(N)=O)NC1=O [Analog No. 51, H2-D-p-F-Phe-D-Cys-Pal-D-Trp-Lys-Tle-Cys-β-Nal-NH2] (H-[dPhe(4-F)][dC][3Pal][dW]K[Tle]C[2Nal]-NH2; disulfide 2-7)"
4,2.6,"CC(C)[C@@H]1NC(=O)[C@H](CCCCN)NC(=O)[C@@H](Cc2c[nH]c3ccccc23)NC(=O)[C@H](Cc2cccnc2)NC(=O)[C@H](NC(=O)[C@@H](N)Cc2ccc(Br)cc2)CSSC[C@@H](C(=O)N[C@@H](Cc2ccc(Br)cc2)C(N)=O)NC1=O [Analog No. 52, H2-Bpa-D-Cys-Pal-D-Trp-Lys-Val-Cys-Bpa-NH2] (H-[Phe(4-Br)][dC][3Pal][dW]KVC[Phe(4-Br)]-NH2; disulfide 2-7)"
5,2.9,"CC(C)[C@@H]1NC(=O)[C@H](CCCCN)NC(=O)[C@@H](Cc2c[nH]c3ccccc23)NC(=O)[C@H](Cc2cccnc2)NC(=O)[C@H](NC(=O)[C@@H](N)Cc2ccc(I)cc2)CSSC[C@@H](C(=O)N[C@@H](Cc2ccc(I)cc2)C(N)=O)NC1=O [Analog No. 53, H2-Iph-D-Cys-Pal-D-Trp-Lys-Val-Cys-Iph-NH2] (H-[Phe(4-I)][dC][3Pal][dW]KVC[Phe(4-I)]-NH2; disulfide 2-7)"
6,29,"CC(C)(C)[C@@H]1NC(=O)[C@H](CCCCN)NC(=O)[C@@H](Cc2c[nH]c3ccccc23)NC(=O)[C@H](Cc2cccnc2)NC(=O)[C@H](NC(=O)[C@@H](N)Cc2c[nH]c3ccccc23)CSSC[C@@H](C(=O)N[C@@H](Cc2ccc3ccccc3c2)C(N)=O)NC1=O [Analog No. 54, H2-Trp-D-Cys-Pal-D-Trp-Lys-Tle-Cys-β-Nal-NH2] (H-W[dC][3Pal][dW]K[Tle]C[2Nal]-NH2; disulfide 2-7)"
7,2.6,"CC(C)[C@@H]1NC(=O)[C@H](CCCCN)NC(=O)[C@@H](Cc2c[nH]c3ccccc23)NC(=O)[C@H](Cc2cccnc2)NC(=O)[C@H](NC(=O)[C@@H](N)Cc2ccc(Cl)cc2)CSSC[C@@H](C(=O)N[C@@H](Cc2ccc3ccccc3c2)C(N)=O)NC1=O [Analog No. 55, H2-p-Cl-Phe-D-Cys-Pal-D-Trp-Lys-Val-Cys-β-Nal-NH2] (H-[Phe(4-Cl)][dC][3Pal][dW]KVC[2Nal]-NH2; disulfide 2-7)"
8,1.8,"CC(C)(C)[C@@H]1NC(=O)[C@H](CCCCN)NC(=O)[C@@H](Cc2c[nH]c3ccccc23)NC(=O)[C@H](Cc2cccnc2)NC(=O)[C@H](NC(=O)[C@@H](N)Cc2ccc(Cl)cc2)CSSC[C@@H](C(=O)N[C@@H](Cc2ccc3ccccc3c2)C(N)=O)NC1=O [Analog No. 56, H2-p-Cl-Phe-D-Cys-Pal-D-Trp-Lys-Tle-Cys-β-Nal-NH2] (H-[Phe(4-Cl)][dC][3Pal][dW]K[Tle]C[2Nal]-NH2; disulfide 2-7)"
9,5.9,"CC(C)(C)[C@@H]1NC(=O)[C@H](CCCCN)NC(=O)[C@@H](Cc2c[nH]c3ccccc23)NC(=O)[C@H](Cc2cccnc2)NC(=O)[C@H](NC(=O)[C@@H](N)Cc2ccc(Cl)cc2)CSSC[C@@H](C(=O)N[C@@H](Cc2ccc(Cl)cc2)C(N)=O)NC1=O [Analog No. 57, H2-p-Cl-Phe-D-Cys-Pal-D-Trp-Lys-Tle-Cys-p-Cl-Phe-NH2] (H-[Phe(4-Cl)][dC][3Pal][dW]K[Tle]C[Phe(4-Cl)]-NH2; disulfide 2-7)"
